From PubChem BioAssay AID192 (DTP/NCI, 2004)
“And” between values parts separate entries of the source, which are not always exact repeats. Equal entries are not always repeated. Inconclusive results and toxic doses are left out. The calls were made as follows: active = survival T/C of 150% or more; inactive = T/C below 125% in these data. Peptide text beside a SMILES is read from it. * marks the point of attachment. Cbz = O=C(OCc1ccccc1)*

Tested on: BDF1 mice, B16 melanoma ip, median survival T/C
Assay: NCI In Vivo Anticancer Drug Screen. Data for tumor model B16 Melanoma (intraperitoneal) in B6D2F1 (BDF1) mice
Conditions: endpoint: median survival time, higher = longer survival
Procedure, shortened: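 Compounds were tested in mice carrying transplantable tumors. Survival or tumor size was recorded, and each value is the treated-group measurement (T) divided by that of the vehicle-treated control group (C).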

[1] = dose: 100.0 mg/kg/injection, schedule: Q01DX009 (ip), vehicle: saline
[2] = dose: 400.0 mg/kg/injection, schedule: Q01DX009 (ip), vehicle: saline
[3] = dose: 25.0 mg/kg/injection, schedule: Q01DX009 (ip), vehicle: saline with Tween-80
[4] = dose: 100.0 mg/kg/injection, schedule: Q01DX009 (ip), vehicle: saline with Tween-80
[5] = dose: 12.5 mg/kg/injection, schedule: Q01DX009 (ip), vehicle: Klucel (hydroxypropylcellulose) (HPC)
[6] = dose: 100.0 mg/kg/injection, schedule: Q01DX009 (ip), vehicle: Klucel (hydroxypropylcellulose) (HPC)
[7] = dose: 200.0 mg/kg/injection, schedule: Q01DX009 (ip), vehicle: Klucel (hydroxypropylcellulose) (HPC)
[8] = dose: 400.0 mg/kg/injection, schedule: Q01DX009 (ip), vehicle: Klucel (hydroxypropylcellulose) (HPC)
[9] = dose: 50.0 mg/kg/injection, schedule: Q01DX009 (ip), vehicle: saline with Tween-80
[10] = dose: 50.0 mg/kg/injection, schedule: Q01DX009 (ip), vehicle: Klucel (hydroxypropylcellulose) (HPC)
[11] = dose: 12.5 mg/kg/injection, schedule: Q01DX009 (ip), vehicle: saline with Tween-80
[12] = dose: 12.5 mg/kg/injection, schedule: Q01DX009 (ip), vehicle: water
[13] = dose: 25.0 mg/kg/injection, schedule: Q01DX009 (ip), vehicle: water
[14] = dose: 3.12 mg/kg/injection, schedule: Q01DX009 (ip), vehicle: saline
[15] = dose: 6.25 mg/kg/injection, schedule: Q01DX009 (ip), vehicle: saline
[16] = dose: 12.5 mg/kg/injection, schedule: Q01DX009 (ip), vehicle: saline
[17] = dose: 25.0 mg/kg/injection, schedule: Q01DX009 (ip), vehicle: saline
[18] = dose: 50.0 mg/kg/injection, schedule: Q01DX009 (ip), vehicle: saline
[19] = dose: 25.0 mg/kg/injection, schedule: Q01DX009 (ip), vehicle: Klucel (hydroxypropylcellulose) (HPC)

Measured: T/C

O=C/C(Cl)=C(/Cl)C(=O)O
inactive: dose: 2.5 mg/kg/injection, schedule: Q01DX009 (ip), vehicle: saline with Tween-80 99 % of control | dose: 5.0 mg/kg/injection, schedule: Q01DX009 (ip), vehicle: saline with Tween-80 87 % of control | dose: 10.0 mg/kg/injection, schedule: Q01DX009 (ip), vehicle: saline with Tween-80 102 % of control | dose: 20.0 mg/kg/injection, schedule: Q01DX009 (ip), vehicle: saline with Tween-80 106 % of control

COc1ccccc1NC(=O)c1cc2ccccc2cc1O
inactive: [1] 121 % of control | [2] 118 % of control

COC1=C(O)C(C(O)CO)OC1=O (stereo unspecified)
inactive: [1] 99 % of control | dose: 200.0 mg/kg/injection, schedule: Q01DX009 (ip), vehicle: saline 110 % of control | [2] 108 % of control

C#CC1(OCC(CCl)OC(N)=O)CCCCC1 (stereo unspecified)
inactive: [3] 87 % of control | [4] 104 % of control

CC(=O)[O][Hg][c]1c(C)c(C)c(C)c(C)c1C
inactive: dose: 2.5 mg/kg/injection, schedule: Q01DX009 (ip), vehicle: Klucel (hydroxypropylcellulose) (HPC) 99 % of control | dose: 5.0 mg/kg/injection, schedule: Q01DX009 (ip), vehicle: Klucel (hydroxypropylcellulose) (HPC) 98 % of control | dose: 10.0 mg/kg/injection, schedule: Q01DX009 (ip), vehicle: Klucel (hydroxypropylcellulose) (HPC) 90 % of control | [5] 90 % of control

O=C1CSC2=NCCN12
inactive: dose: 50.0 mg/kg/injection, schedule: Q01DX009 (ip), vehicle: suspension in saline 99 % of control | dose: 100.0 mg/kg/injection, schedule: Q01DX009 (ip), vehicle: suspension in saline 113 % of control | dose: 200.0 mg/kg/injection, schedule: Q01DX009 (ip), vehicle: suspension in saline 111 % of control

CC(=O)N/C(=C/c1ccccc1)C(=O)O
inactive: [6] 94 % of control | dose: 100.0 mg/kg/injection, schedule: Q04DX003 (ip), vehicle: Klucel (hydroxypropylcellulose) (HPC) 93 % of control | [7] 108 % of control | dose: 200.0 mg/kg/injection, schedule: Q04DX003 (ip), vehicle: Klucel (hydroxypropylcellulose) (HPC) 86 % of control | [8] 97 % of control | dose: 400.0 mg/kg/injection, schedule: Q04DX003 (ip), vehicle: Klucel (hydroxypropylcellulose) (HPC) 90 % of control

CCCC(=O)OCc1ccc(Cl)c(Cl)c1
inactive: dose: 16.5 mg/kg/injection, schedule: Q04DX003 (ip), vehicle: saline with Tween-80 91 % of control | [3] 93 % of control | dose: 25.0 mg/kg/injection, schedule: Q04DX003 (ip), vehicle: saline with Tween-80 102 % of control | dose: 37.5 mg/kg/injection, schedule: Q04DX003 (ip), vehicle: saline with Tween-80 102 % of control | [9] 97 % of control | dose: 50.0 mg/kg/injection, schedule: Q04DX003 (ip), vehicle: saline with Tween-80 118 % of control | [4] 100 % of control | dose: 100.0 mg/kg/injection, schedule: Q04DX003 (ip), vehicle: saline with Tween-80 123 % of control

O=C(Nc1ccccc1C(F)(F)F)Nc1cccc2ccccc12
inactive: [6] 91 % of control | [7] 94 % of control

CCCCCCN(CCCCCC)CC(O)c1ccc2c3c(cccc13)CC2 (stereo unspecified)
inactive: [10] 105 % of control | [6] 98 % of control | [7] 101 % of control

C1CCC2[N-]CC3CCCCC3[N-]CC3CCCCC3[N-]CC3CCCCC3[N-]CC2C1.[Cu] (stereo unspecified)
active: dose: 3.12 mg/kg/injection, schedule: Q01DX009 (ip), vehicle: Klucel (hydroxypropylcellulose) (HPC) 156 % of control
inactive: dose: 1.56 mg/kg/injection, schedule: Q01DX009 (ip), vehicle: Klucel (hydroxypropylcellulose) (HPC) 123 % of control

c1cn[nH]c1
inactive: [3] 97 % of control | [9] 96 % of control | [4] 91 % of control

Cc1cnnc2ccccc12
inactive: [11] 91 % of control | [3] 98 % of control | [9] 95 % of control

O=C1/C(=C/c2ccc([N+](=O)[O-])cc2)CCc2ccccc21
inactive: [12] 94 % of control | [13] 97 % of control | dose: 50.0 mg/kg/injection, schedule: Q01DX009 (ip), vehicle: water 92 % of control | dose: 100.0 mg/kg/injection, schedule: Q01DX009 (ip), vehicle: water 92 % of control

Cc1cc(=O)c2c(=O)[nH][nH]c2[nH]1
inactive: [9] 100 % of control | [4] 95 % of control | dose: 200.0 mg/kg/injection, schedule: Q01DX009 (ip), vehicle: saline with Tween-80 88 % of control

CC1=CC(=O)[C@@H](O)[C@]2(C)[C@H]3[C@@]4(O)OC[C@]35[C@H]([C@@H](C)[C@H]4O)[C@@H](O)C(=O)O[C@@H]5C[C@@H]12
inactive: dose: 0.75 mg/kg/injection, schedule: Q01DX009 (ip), vehicle: saline 107 % of control | dose: 1.5 mg/kg/injection, schedule: Q01DX009 (ip), vehicle: saline 109 % of control | dose: 3.0 mg/kg/injection, schedule: Q01DX009 (ip), vehicle: saline 117 % of control | dose: 6.0 mg/kg/injection, schedule: Q01DX009 (ip), vehicle: saline 108 % of control

CNCCOC(c1ccccc1)c1ccccc1C (stereo unspecified)
inactive: [14] 97 % of control | [15] 97 % of control | [16] 102 % of control | [17] 100 % of control | [18] 104 % of control

C=CCN(C)N=Nc1ccc(C(N)=O)cc1
inactive: [19] 105 % of control | [10] 110 % of control | [6] 107 % of control

CNCCOc1ccccc1
inactive: [3] 110 % of control | [9] 101 % of control | [4] 101 % of control

O=C(NC(Cc1ccccc1)C(=O)NC(CO)C(=O)O)OCc1ccccc1 (stereo not drawn) (Cbz-Phe-Ser-OH; configuration not given here)
inactive: [9] 95 % of control | [4] 90 % of control

CNC(C)Cc1ccccc1 (stereo unspecified)
inactive: dose: 3.75 mg/kg/injection, schedule: Q01DX009 (ip), vehicle: saline 95 % of control | dose: 15.0 mg/kg/injection, schedule: Q01DX009 (ip), vehicle: saline 95 % of control | dose: 30.0 mg/kg/injection, schedule: Q01DX009 (ip), vehicle: saline 95 % of control

Clc1ccc2c(c1)/C(=C/c1cccnc1)c1cc(Cl)cc(Cl)c1-2
inactive: [9] 86 % of control

CC(C)=CC1C(C(=O)OCc2ccc(C)cc2C)C1(C)C (stereo unspecified)
inactive: dose: 6.25 mg/kg/injection, schedule: Q01DX009 (ip), vehicle: saline with Tween-80 99 % of control | [11] 104 % of control | [3] 110 % of control | [9] 103 % of control

Oc1c(CNCCCN2CCCC2)cc(Cl)c2cccnc12
inactive: [16] 94 % of control and 95 % of control and 106 % of control | [17] 93 % of control and 98 % of control and 102 % of control | [18] 94 % of control and 97 % of control and 98 % of control | [1] 103 % of control and 108 % of control and 109 % of control

Cc1ccc(Cl)cc1NC(=O)c1ccc(Cl)cc1
inactive: [6] 94 % of control | [7] 101 % of control | [8] 116 % of control

CCc1nc(N)nc(N)c1-c1ccc(Cl)c(Cl)c1.[Cl][Pd][Cl]
inactive: [15] 97 % of control

CC(CC=O)CCCC(C)(C)O (stereo unspecified)
inactive: [6] 101 % of control | [7] 97 % of control

OC1(C#CC2(O)c3ccccc3-c3ccccc32)c2ccccc2-c2ccccc21
inactive: [6] 122 % of control | [7] 97 % of control | [8] 94 % of control

CCn1c(O)c(C=N)c(=O)n(CC)c1=O
inactive: dose: 150.0 mg/kg/injection, schedule: Q04DX003 (ip), vehicle: Klucel (hydroxypropylcellulose) (HPC) 90 % of control

COc1ccc(NC2=C(C)C(=O)C3=C(C2=O)[C@H](COC(N)=O)[C@]2(OC)[C@@H]4N[C@@H]4CN32)cc1OC
active: dose: 3.0 mg/kg/injection, schedule: Q04DX003 (ip), vehicle: water 223 % of control | dose: 6.0 mg/kg/injection, schedule: Q04DX003 (ip), vehicle: water 312 % of control

CC(=O)CC(=O)Nc1cc(C)c(NC(=O)CC(C)=O)cc1C
inactive: [6] 93 % of control | [7] 93 % of control

NC(=O)N1c2ccccc2C=Cc2ccccc21
inactive: [5] 112 % of control | [19] 100 % of control | [10] 106 % of control | [6] 91 % of control | [7] 90 % of control

NC1(c2ccccc2)CCCCC1
inactive: [14] 86 % of control | [15] 100 % of control | [16] 102 % of control | [17] 100 % of control | [18] 100 % of control

NC(CNC(=O)CBr)C(=O)O (stereo unspecified)
inactive: dose: 6.25 mg/kg/injection, schedule: Q01DX009 (ip), vehicle: water 109 % of control | [12] 104 % of control | [13] 122 % of control

Cc1ccc(S(=O)(=O)N/N=C/C(Br)=C(/Br)C(=O)O)cc1
inactive: [5] 111 % of control | [19] 113 % of control | [10] 122 % of control
